# Measured values: patent publication US12059000B1, “Use of erythritol compositions as mammal-safe insecticides” (Drexel University, priority 2020, dated 2024)
# “Also recorded” adds a separate entry of the source.
# Legend:
# fruit flies [1] = assay: Comparison of erythritol with other sweet alcohols, fly longevity; format: in vivo, Drosophila melanogaster; settings: 1 M in standard fly food, 17 days
# Method: An experiment was conducted to compare the effectiveness of erythritol with other human-safe sweet alcohols: D-mannitol, maltitol, sucrose, and xylitol. The concentration of all sweet alcohols were 1M.
# Flies were raised for 17 days on standard fly food that contained 1 M concentrations of each sweetener treatment. Death of flies was recorded daily as before; each treatment was replicated on three vials of 10 flies each for 30 subjects/treatment. Differences in longevity were analyzed using the Kaplan-Meier survival analysis log rank test, making all pairwise comparisons among treatments.
# Drosophila melanogaster [2] = assay: Erythritol concentration trials on fly longevity; format: in vivo
# Method: Standard fly foods were prepared as previously described, and then were treated with 2M, 1M, 0.5M and 0.1M concentrations of erythritol, using 0.5M sucrose as control. 0 to 24 hour-old Drosophila were placed on these foods and mortality was recorded daily for 35 days as above. Analyses were conducted with SPSS software v. 20 (IBM corporation 2011). Fly longevity data were analyzed using survival analysis with right-hand censoring of subjects that lived to the end of the study or were lost for reasons other than death. Test were run for differences in survival distributions [Pr(flies alive) versus insect age] using the log-rank (Mantel-Cox) test to make all pairwise comparisons among treatments within each experiment.
# fruit flies [3] = settings: 0.5 M erythritol food, previous work; cited from earlier work
# R. flavipes workers = assay: Termite survival experiment on erythritol-treated paper; format: in vivo, Reticulitermes flavipes
# Method: Termites used in the survival and choice experiments were collected from three field colonies in Scotland Run Park (39.66° N, 75.05° W) in Clayton, NJ between April and May 2019. After collection, colonies were maintained in plastic containers with soil and wood from the collection site as a substrate in laboratory conditions (20.8±0.9° C., 49±7% RH). Termites used in the consumption experiment were collected from a single field colony at Cobb's Creek Park (39.94° N, 75.24° W) in Philadelphia, PA during September of 2018. Workers were removed from the log and housed within 24 h of collection in 9 cm diameter petri dishes containing damp paper towel as a food source. Dishes were placed in an incubator at 26° C. (relative humidity varied between 40 and 60% across trials, but was consistent among all treatments within each trial). Each petri dish contained 10 workers. Termites used in all experiments measured 3-4 mm in length.
# For the survival experiment, unbleached, brown paper towels (12 cmx 24 cm, cat no. 01801, Kimberly-Clark Corporation, Neenah, WI), were completely submerged for 15 s in solution of distilled water, erythritol (100% purity, NOW foods, Bloomingdale, IL) of the below-specified concentrations, and 0.05% Brilliant Blue R-250 dye (cat. no 27816, Sigma-Aldrich, St. Louis, MO). The erythritol concentrations used were: 0 M (control), 0.25 M, 0.5 M, 0.75 M, 1.0 M, and 1.25 M. The treated paper towels were removed from solution and allowed to dry horizontally on racks before being cut into squares with an area of 144 cm^2. […]
# Following the pretrial period, the experiment was set up: pretrial paper towels were removed and replaced with treated paper towels of the correct erythritol treatment concentration; these were rehydrated with 750 μL of distilled water. […] Termite mortality was recorded every 24 h for 8 d.
# Analyses were performed using SPSS v. […] Mean percent mortality was calculated for each concentration across colonies at 72 and 96 h and a three parameter, best-fit sigmoid curve was fitted to the data in Sigmaplot to assess LC at these time points.
# Drosophila melanogaster [4] = assay: Drosophila longevity assay on food containing sweeteners; format: in vivo; settings: repeat with blue food, 0.0238 g/ml
# Method: All animals were cultured at 25° C., kept at 50-60% humidity, and were raised under a standard 12:12 light dark cycle. For each experimental treatment, n=30 flies were tested in groups of 10 per tube, and three tubes per treatment. Tubes were kept on their side to minimize subject becoming mired in the food. Foods were replaced twice a week. The total number of fruit flies used for these experiments was 780, with 300 used for two initial trials testing mortality among store-brand sweeteners, 210 used for repeating this with blue dye and pure erythritol, 120 for choice trials and 150 for concentration trials.
# Standard Drosophila food for larval culturing consisted of water, cornmeal, yeast, molasses, and agar, as previously described (Chakraborty, et al., 2011, PLoS ONE 6: e20799). […] The addition of cornmeal and yeast assured the flies still received sufficient carbohydrates and protein in addition to any effects of the treatment additives.
# Drosophila food was combined with an equal weight/volume (0.0238 g/ml) of one non-nutritive sweetener (TRUVIA, EQUAL, SPLENDA, SWEET'NLOW, or PUREVIA) or a control nutritive sweetener (controls: sucrose or corn syrup). Wild type (Canton S) larvae were initially raised on the standard food, and 0-12 hour old adult flies were transferred to foods containing one non-nutritive sweetener or a control treatment. […] The number of dead flies were scored daily.
# [5] = humans, even in high concentrations; cited from earlier work
# Drosophila melanogaster [6] = assay: Two-way choice experiments, fly longevity; format: in vivo
# Method: Foods containing 2 M erythritol, 1M erythritol and 1M sucrose were prepared for paired presentations in open choice tests. In each treatment one food type contained 0.05% brilliant blue FCF (Fisher 50-727-25). The blue dye allowed visual confirmation of feeding on the dyed food in the pair. The flies were presented with access to two food choices by using a modified cotton stopper with approximately a 1.5 cm diameter hole to connect each pair of food tubes.
# The final choice treatment was between blue 2M erythritol food and non-blue 1M sucrose food (this treatment provides a comparison with the 1M erythritol/1M erythritol treatment as a test of dilution of toxicity by alternative food sources; blue guts would confirm erythritol was being consumed in the presence of sucrose). The number of flies with visible blue gut contents and mortality daily were recorded for 30 days.
# Analyses were conducted with SPSS software v. 20 (IBM corporation 2011). Fly longevity data were analyzed using survival analysis with right-hand censoring of subjects that lived to the end of the study or were lost for reasons other than death. Test were run for differences in survival distributions [Pr(flies alive) versus insect age] using the log-rank (Mantel-Cox) test to make all pairwise comparisons among treatments within each experiment.
compound,measurement,setting,value
OC[C@@H](O)[C@@H](O)[C@H](O)[C@H](O)CO [D-mannitol],fly longevity / insecticidal effect compared to sucrose control,fruit flies [1],did not differ from sugar control; also recorded: slightly but significantly reduced longevity; also recorded: almost insignificant insecticidal effect
"OC[C@@H](O)[C@@H](O)CO [erythritol, (2R,3S)-butane-1,2,3,4-tetraol]",longevity compared to control food containing 0.5M sucrose,"Drosophila melanogaster [2]; 0.1M in food, 35 days",no significant difference in longevity
same,dose response of fly longevity (FIG. 4),"Drosophila melanogaster [2]; 0.1M, 0.5M, 1.0M and 2.0M in food",significant decrease in longevity of adult flies as concentration of erythritol was increased; also recorded: dose-dependent reduction in longevity
same,longevity compared to control food containing 0.5M sucrose,"Drosophila melanogaster [2]; 0.5M in food, 35 days",significant reductions in longevity
same,longevity compared to control food containing 0.5M sucrose,"Drosophila melanogaster [2]; 1M in food, 35 days",significant reductions in longevity
same,longevity compared to all other treatments,"Drosophila melanogaster [2]; 2M in food, 35 days",significant and severe effect on longevity
same,time to 50% mortality,fruit flies [3],20 days
same,"longevity of workers to 8 d, erythritol treatments versus 0M control (FIG. 9)","R. flavipes workers; 0.25-1.25 M treated paper, 8 d",All treatments are significantly different from 0 M; also recorded: differed significantly
same,lowest concentration with significant effects on longevity,"R. flavipes workers; R. flavipes workers, 8 d",0.25 M
same,time to 50% mortality,"R. flavipes workers; termites, 0.5 M erythritol filter papers",≤ 2 days
same,"longevity compared to PUREVIA, EQUAL, sucrose and corn syrup (FIG. 3)",Drosophila melanogaster [4],significant decrease in longevity
same,safety of consumption,[5],safe to humans
same,longevity relative to sucrose:sucrose choice (FIG. 5),Drosophila melanogaster [6]; choice between 1M sucrose and 1M erythritol,significant decrease in longevity; also recorded: significantly decreased longevity
same,longevity relative to sucrose:sucrose choice (FIG. 5),Drosophila melanogaster [6]; choice between 1M sucrose and 2M erythritol,significant decrease in longevity; also recorded: significantly reduced
same,fly longevity / insecticidal effect compared to sucrose control,fruit flies [1],toxic to fruit flies upon ingestion
same,mean fly longevity,fruit flies [1],4.7 ± 0.15 days
OC[C@@H](O)[C@@H](O[C@H]1O[C@H](CO)[C@@H](O)[C@H](O)[C@H]1O)[C@H](O)[C@@H](O)CO [maltitol],fly longevity / insecticidal effect compared to sucrose control,fruit flies [1],did not differ from sugar control; also recorded: did not differ from the control; also recorded: not effective at reducing fly longevity
OC[C@@H](O)[C@H](O)[C@@H](O)CO [xylitol],fly longevity / insecticidal effect compared to sucrose control,fruit flies [1],did not differ from sugar control; also recorded: did not differ from the control; also recorded: not effective at reducing fly longevity
